From ChEMBL document CHEMBL1201862, “PubChem BioAssay data set” (2004)
Calls of active or inactive are those of the source.

Key:
[1] = viability loss in HeLa cells – cytotoxicity control for MgcRacGAP inhibitor project, dose response (AID 624300); type: functional
[2] = rescue of ΔF508 CFTR function, airway epithelium – human bronchial epithelial cells, plate reader, cherry-pick, two tests, dose response (AID 743267); type: functional, cell-based
[3] = molecular target: T1, DNA repair protein RAD52 homolog (Homo sapiens, UniProt P43351); type: functional, biochemical
T1 sequence (P43351 whole entry): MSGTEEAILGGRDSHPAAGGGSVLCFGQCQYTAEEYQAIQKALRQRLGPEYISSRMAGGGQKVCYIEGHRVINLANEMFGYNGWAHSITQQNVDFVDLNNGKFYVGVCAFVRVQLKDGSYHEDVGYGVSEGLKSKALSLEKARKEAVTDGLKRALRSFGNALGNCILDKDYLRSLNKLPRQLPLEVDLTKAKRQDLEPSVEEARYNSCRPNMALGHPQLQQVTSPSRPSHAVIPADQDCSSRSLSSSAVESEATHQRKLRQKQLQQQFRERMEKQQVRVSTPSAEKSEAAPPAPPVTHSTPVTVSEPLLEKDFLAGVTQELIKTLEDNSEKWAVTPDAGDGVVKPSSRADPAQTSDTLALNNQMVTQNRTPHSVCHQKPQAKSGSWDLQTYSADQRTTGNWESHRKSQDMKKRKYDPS

Hexokinase HKDC1 = molecular target: T2, Hexokinase HKDC1 (Homo sapiens, UniProt Q2TB90); assay: activation of HKDC1 glucose phosphorylation – biochemical, W721R variant, dose response (AID 504730); type: functional
T2 sequence (Q2TB90 whole entry): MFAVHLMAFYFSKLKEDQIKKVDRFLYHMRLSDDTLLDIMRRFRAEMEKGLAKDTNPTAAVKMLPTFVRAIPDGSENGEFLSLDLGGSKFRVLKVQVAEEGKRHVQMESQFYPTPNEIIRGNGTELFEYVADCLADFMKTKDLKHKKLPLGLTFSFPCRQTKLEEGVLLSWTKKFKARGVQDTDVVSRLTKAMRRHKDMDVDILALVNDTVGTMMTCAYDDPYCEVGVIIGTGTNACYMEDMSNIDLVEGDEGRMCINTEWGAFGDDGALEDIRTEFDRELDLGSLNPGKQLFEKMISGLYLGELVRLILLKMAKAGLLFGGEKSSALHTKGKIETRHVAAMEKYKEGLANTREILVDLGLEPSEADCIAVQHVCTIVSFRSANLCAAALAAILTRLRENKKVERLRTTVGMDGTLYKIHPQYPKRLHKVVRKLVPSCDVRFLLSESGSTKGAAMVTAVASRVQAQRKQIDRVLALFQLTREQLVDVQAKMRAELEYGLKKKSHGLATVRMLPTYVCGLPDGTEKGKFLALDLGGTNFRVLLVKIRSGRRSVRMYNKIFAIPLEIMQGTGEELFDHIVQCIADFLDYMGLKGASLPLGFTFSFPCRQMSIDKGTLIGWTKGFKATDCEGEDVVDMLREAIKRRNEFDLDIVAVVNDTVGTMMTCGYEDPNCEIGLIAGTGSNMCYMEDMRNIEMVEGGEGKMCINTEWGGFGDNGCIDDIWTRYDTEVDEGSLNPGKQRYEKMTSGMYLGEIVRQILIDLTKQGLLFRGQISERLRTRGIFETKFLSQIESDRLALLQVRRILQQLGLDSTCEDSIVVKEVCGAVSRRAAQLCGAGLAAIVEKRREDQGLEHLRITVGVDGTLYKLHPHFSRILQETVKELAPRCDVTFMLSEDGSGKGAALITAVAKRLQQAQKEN

[4] = molecular target: T3, Rac GTPase-activating protein 1 (Homo sapiens, UniProt Q9H0H5); assay: blockers of MgcRacGAP-driven Rac1 GTP hydrolysis – biochemical, ADP Hunter fluorescence, primary and confirmatory, confirmation (AID 624330); type: functional
T3 sequence (Q9H0H5 whole entry): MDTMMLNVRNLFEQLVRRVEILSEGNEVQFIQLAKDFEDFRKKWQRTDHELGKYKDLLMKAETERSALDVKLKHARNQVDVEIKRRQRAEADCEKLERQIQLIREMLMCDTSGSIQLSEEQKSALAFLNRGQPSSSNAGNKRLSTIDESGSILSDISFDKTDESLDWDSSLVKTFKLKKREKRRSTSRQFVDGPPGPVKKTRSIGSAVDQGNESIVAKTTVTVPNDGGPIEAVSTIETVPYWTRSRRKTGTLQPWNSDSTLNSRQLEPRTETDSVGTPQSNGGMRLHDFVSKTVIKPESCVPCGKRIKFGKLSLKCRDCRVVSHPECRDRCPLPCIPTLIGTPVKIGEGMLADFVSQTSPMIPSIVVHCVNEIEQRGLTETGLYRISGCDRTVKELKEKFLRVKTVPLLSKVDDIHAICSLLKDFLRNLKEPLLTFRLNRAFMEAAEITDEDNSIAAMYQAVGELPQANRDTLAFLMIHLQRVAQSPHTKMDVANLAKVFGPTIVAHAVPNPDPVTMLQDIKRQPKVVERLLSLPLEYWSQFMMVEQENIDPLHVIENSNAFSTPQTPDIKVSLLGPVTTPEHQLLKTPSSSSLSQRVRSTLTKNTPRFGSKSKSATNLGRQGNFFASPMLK

[5] = molecular target: T4, Runt-related transcription factor 1/Core-binding factor subunit beta (Homo sapiens, UniProt Q01196+Q13951); assay: disruptors of Runt domain/CBFb-SMMHC interaction – biochemical, FRET, Cerulean-Runt, Venus-CBFb-SMMHC, uHTS, […] (AID 1434); type: protein assay
[6] = molecular target: T4, Runt-related transcription factor 1/Core-binding factor subunit beta; assay: Runt domain/CBFb-SMMHC interaction disruptors – biochemical, TR-FRET (AID 1438); type: protein assay
[7] = viability loss of HPDE-C7K cells – cell-based, fluorescence, HTS, primary screen (AID 431); type: functional; details: Homo sapiens
[8] = HPDE-C7 pancreatic duct cell viability loss – fluorescence, HTS (AID 430); type: functional, cell-based; details: Homo sapiens
Estrogen receptor = molecular target: T5, Estrogen receptor (Homo sapiens, UniProt P03372);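 also: potency for inhibiting coactivator peptide recruitment to the receptor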
T5 sequence (P03372 whole entry): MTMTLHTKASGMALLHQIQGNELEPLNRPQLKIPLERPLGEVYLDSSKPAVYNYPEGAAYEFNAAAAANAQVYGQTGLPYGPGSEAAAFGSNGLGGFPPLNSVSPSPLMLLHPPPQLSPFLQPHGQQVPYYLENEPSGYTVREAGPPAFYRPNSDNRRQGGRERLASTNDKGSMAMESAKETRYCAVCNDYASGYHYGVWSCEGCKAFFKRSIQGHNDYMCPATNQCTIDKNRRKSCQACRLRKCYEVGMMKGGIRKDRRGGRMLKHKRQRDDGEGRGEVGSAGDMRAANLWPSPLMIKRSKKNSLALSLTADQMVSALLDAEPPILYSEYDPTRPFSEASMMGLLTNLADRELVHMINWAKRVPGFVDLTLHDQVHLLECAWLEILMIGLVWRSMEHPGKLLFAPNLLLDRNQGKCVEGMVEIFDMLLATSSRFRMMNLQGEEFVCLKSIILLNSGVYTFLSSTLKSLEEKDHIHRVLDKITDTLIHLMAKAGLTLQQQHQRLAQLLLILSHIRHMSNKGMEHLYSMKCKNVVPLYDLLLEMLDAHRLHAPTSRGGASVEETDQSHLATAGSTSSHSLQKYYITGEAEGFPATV

[9] = molecular target: T6, Voltage-gated N-type calcium channel alpha-1B subunit/Amyloid beta A4 precursor protein-binding family A member 1 (Homo sapiens, UniProt Q00975+Q02410); type: protein assay
[10] = molecular target: T6, Voltage-gated N-type calcium channel alpha-1B subunit/Amyloid beta A4 precursor protein-binding family A member 1; type: protein assay; remark: listed apart in the source
Mucolipin-3 = Mucolipin-3 (Homo sapiens, UniProt Q8TDD5); assay: Fluorescence counterscreen assay for […] agonists: dose response cell-based high-throughput screening assay to identify agonists of the transient receptor potential channel ML3 (TRPML3). [Related pubchem assays: 1424, 1448 ]; type: functional
Ion channel NompC = Ion channel NompC (Danio rerio, UniProt Q7T1G6); assay: Dose response cell-based high-throughput screening assay for agonists of the transient receptor potential channel N1 (TRPN1). [Related pubchem assays (depositor defined):AID1424, AID1448]; type: functional
[11] = Intein inhibitors as potential Tuberculosis drugs, a cytotoxicity screen. [Related pubchem assays (depositor defined):AID2221, AID2223, AID434968, AID435010, AID449749, AID449750, AID489010]; type: functional
[12] = reduction of Shn3 3'UTR-driven luciferase in osteoblasts – cell-based, Clone20 osteoblasts, firefly luciferase, cherry-picked, dose response (AID 624132); type: functional;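 also: firefly luciferase luminescence from reporter carrying the Shn3 3'UTR in osteoblasts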
[13] = Trypanosoma cruzi growth suppression in host cells – NIH3T3 host cells, beta-gal luminescence, confirmation (AID 2044); type: functional, cell-based;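 also: intracellular parasites grown in NIH/3T3 mouse fibroblasts as host cells; luminescent beta-galactosidase reporter signal from transgenic T. cruzi replicating inside host cells; inhibitors lower the luminescence signal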
[14] = molecular target: DNA damage-inducible transcript 3 protein (Mus musculus, UniProt P35639); type: functional, Cricetulus griseus
[15] = molecular target: Neurotensin receptor type 1 (Homo sapiens, UniProt P30989); type: functional;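 also: Image-based confirmatory dose-response assay measuring agonist activity at NTR1; NTR1-expressing U2OS osteosarcoma cells imaged for beta-arrestin GFP spot formation; agonist potency where compounds increase beta-arrestin recruitment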
[16] = loss of viability in HepG2 cells – cell-based, CellTiter-Glo, cherry-picked, cytotoxicity control for Shn3 inhibitor project, dose response (AID 624134); type: functional
[17] = molecular target: T7, Replicative DNA helicase DnaB (Mycobacterium tuberculosis, UniProt P9WMR3); assay: DnaB intein splicing inhibitors, dose response, biochemical, cell-free fluorescence (AID 449749); type: functional
T7 sequence (P9WMR3 whole entry): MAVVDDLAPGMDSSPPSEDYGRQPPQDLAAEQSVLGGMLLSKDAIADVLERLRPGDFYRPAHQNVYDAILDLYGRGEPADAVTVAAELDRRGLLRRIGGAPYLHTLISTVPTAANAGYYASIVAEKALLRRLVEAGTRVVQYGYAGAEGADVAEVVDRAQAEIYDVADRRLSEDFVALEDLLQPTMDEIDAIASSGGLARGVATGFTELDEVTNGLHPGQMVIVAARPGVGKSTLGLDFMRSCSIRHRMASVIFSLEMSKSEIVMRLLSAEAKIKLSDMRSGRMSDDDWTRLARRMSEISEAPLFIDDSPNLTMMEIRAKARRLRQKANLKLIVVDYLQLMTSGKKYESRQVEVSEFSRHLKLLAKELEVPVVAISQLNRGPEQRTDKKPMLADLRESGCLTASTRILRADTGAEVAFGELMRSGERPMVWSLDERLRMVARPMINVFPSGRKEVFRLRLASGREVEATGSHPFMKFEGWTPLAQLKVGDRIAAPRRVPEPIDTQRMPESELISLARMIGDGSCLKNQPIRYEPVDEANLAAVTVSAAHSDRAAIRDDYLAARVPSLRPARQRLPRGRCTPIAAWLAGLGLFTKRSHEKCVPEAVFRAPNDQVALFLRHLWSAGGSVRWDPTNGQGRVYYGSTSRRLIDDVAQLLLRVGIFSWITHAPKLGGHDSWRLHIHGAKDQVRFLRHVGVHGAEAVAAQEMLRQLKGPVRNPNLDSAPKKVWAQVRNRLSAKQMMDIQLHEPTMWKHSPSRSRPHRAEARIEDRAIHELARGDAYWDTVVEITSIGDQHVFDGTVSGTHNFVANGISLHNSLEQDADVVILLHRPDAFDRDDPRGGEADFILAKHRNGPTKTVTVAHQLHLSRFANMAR

Protein RecA = molecular target: T8, Protein RecA (Mycobacterium tuberculosis, UniProt P9WHJ3); assay: Fluorescence Cell-Free Homogeneous Dose Retest to Identify Inhibitors of RecA-Intein Splicing Activity. [Related pubchem assays (depositor defined):AID2097, AID2223, AID489010, AID492950]; type: functional
T8 sequence (P9WHJ3 whole entry): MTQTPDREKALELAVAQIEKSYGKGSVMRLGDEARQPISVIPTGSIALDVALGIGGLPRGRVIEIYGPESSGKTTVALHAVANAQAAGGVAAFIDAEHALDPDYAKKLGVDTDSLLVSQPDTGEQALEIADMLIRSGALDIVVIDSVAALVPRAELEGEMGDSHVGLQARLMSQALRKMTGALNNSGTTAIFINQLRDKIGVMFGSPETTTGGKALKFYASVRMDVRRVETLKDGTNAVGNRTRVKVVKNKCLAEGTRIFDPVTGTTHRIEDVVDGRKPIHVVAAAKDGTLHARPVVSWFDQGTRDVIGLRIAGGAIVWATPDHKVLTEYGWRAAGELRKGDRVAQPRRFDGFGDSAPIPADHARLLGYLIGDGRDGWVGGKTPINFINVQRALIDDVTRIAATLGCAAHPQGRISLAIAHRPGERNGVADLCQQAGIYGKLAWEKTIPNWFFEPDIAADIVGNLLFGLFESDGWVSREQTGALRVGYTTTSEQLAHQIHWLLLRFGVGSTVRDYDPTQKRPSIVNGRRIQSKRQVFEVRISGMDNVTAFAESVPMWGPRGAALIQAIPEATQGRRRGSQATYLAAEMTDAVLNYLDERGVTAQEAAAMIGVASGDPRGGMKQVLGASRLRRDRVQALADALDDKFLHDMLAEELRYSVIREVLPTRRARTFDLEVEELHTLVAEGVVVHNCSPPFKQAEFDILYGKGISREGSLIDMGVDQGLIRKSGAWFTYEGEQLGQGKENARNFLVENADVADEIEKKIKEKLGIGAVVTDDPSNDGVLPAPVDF

[18] = NIH3T3 cell viability loss – ATP luminescence, mouse fibroblasts, counter-screen, dose response (AID 2010); type: functional, cell-based;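 also: cells exposed to compound for about 90 hours before reading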
[19] = non-specific 3'UTR reporter inhibition in Clone20-Shn3RL – cell-based, Renilla luciferase, cherry-picked, counter-screen for Shn3 inhibitor project, dose response (AID 624133); type: functional

T4 sequence (Q01196 whole entry, the tested form may be a part): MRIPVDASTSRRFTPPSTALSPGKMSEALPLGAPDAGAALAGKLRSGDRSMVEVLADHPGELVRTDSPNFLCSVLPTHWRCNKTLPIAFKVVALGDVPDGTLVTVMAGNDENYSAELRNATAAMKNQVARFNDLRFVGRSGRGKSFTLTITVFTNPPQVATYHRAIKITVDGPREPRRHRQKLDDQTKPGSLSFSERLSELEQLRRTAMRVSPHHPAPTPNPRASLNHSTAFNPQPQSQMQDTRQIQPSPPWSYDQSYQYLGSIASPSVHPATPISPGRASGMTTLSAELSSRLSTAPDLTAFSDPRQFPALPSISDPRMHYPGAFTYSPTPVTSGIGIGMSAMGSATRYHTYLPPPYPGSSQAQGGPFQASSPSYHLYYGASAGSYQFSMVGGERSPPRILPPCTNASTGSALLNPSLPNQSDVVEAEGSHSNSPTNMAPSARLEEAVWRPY
T4 sequence (Q13951 whole entry, the tested form may be a part): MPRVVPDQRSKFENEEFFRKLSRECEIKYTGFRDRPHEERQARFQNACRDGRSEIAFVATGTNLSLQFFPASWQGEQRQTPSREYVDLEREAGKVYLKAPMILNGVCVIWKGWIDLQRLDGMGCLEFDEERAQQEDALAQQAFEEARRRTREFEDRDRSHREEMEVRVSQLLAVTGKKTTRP
T6 sequence (Q00975 whole entry): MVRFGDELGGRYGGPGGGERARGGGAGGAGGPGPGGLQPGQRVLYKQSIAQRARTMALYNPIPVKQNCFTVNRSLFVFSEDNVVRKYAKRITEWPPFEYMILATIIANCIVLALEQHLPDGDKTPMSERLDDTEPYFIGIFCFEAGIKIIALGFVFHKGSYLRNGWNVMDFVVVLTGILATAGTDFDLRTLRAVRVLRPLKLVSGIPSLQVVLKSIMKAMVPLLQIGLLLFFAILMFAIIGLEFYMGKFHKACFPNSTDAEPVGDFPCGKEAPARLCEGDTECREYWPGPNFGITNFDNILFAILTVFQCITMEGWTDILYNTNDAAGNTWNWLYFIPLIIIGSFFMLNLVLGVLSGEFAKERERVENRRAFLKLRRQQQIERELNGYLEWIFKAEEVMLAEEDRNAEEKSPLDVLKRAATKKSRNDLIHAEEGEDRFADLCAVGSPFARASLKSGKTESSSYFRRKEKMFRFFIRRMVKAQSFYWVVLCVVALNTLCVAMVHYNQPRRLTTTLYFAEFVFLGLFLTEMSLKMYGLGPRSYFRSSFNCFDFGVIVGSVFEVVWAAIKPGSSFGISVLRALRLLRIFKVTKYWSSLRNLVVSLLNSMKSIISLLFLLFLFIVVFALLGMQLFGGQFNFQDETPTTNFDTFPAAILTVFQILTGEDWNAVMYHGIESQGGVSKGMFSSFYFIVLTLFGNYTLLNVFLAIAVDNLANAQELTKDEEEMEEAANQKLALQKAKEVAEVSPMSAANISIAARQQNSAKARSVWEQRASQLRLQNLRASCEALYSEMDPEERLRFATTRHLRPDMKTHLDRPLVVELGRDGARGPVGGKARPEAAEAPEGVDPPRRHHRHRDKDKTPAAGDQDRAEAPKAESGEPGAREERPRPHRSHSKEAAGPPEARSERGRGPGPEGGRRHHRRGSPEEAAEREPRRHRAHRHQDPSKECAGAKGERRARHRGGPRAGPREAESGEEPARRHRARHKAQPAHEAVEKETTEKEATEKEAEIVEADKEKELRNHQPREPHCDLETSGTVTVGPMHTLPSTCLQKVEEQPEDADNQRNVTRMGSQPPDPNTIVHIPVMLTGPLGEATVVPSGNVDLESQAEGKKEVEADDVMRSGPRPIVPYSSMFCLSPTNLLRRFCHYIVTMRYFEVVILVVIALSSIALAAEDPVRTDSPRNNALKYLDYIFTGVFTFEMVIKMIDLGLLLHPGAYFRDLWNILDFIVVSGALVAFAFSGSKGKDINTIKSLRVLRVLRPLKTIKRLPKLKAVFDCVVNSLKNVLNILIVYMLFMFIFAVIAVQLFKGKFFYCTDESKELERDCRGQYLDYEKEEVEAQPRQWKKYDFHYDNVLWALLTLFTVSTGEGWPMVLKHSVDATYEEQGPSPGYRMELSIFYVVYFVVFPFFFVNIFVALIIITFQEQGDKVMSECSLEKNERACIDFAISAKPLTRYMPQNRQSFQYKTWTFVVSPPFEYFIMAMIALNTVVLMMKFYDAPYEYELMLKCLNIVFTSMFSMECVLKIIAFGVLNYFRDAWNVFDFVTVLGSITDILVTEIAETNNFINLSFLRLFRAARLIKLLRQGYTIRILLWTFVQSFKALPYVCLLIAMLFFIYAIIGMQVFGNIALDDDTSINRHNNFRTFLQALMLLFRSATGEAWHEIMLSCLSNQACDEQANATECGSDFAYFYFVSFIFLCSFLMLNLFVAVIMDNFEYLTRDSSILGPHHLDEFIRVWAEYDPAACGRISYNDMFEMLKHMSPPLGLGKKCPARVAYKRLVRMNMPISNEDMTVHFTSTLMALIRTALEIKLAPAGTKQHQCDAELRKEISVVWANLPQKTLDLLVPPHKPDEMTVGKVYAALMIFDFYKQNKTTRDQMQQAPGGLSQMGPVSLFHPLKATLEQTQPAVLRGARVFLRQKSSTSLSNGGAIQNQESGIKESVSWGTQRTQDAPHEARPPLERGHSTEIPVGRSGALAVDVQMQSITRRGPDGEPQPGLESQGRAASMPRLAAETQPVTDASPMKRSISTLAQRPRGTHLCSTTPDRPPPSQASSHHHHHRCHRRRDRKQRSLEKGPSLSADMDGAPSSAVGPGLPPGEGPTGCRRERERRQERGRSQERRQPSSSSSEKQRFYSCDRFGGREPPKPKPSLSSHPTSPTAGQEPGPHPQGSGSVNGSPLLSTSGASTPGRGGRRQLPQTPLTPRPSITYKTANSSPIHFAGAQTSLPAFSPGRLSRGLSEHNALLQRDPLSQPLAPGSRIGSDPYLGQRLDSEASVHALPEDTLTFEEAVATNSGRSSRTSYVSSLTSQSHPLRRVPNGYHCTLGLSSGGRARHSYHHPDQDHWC
T6 sequence (Q02410 whole entry): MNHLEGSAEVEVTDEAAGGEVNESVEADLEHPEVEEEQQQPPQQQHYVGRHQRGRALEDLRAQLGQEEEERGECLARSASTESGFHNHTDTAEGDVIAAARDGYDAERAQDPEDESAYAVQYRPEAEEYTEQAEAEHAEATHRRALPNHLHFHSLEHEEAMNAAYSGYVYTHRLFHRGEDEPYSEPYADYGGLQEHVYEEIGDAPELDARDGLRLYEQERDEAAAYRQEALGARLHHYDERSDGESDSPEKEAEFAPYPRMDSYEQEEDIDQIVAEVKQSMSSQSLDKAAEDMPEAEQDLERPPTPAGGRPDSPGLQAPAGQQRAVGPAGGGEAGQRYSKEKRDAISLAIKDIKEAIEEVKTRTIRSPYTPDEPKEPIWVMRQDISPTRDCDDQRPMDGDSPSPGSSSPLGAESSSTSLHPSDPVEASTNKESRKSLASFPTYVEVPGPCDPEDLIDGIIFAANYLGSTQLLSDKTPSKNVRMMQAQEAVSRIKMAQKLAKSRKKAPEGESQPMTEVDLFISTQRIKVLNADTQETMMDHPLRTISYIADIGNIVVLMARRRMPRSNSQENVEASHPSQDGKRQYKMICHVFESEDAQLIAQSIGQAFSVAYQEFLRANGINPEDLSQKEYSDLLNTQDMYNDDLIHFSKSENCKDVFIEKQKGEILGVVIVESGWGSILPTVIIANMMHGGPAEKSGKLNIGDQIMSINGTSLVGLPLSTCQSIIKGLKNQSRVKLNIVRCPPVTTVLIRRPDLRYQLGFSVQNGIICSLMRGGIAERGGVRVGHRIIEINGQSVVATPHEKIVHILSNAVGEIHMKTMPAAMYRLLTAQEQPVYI
Chain of Mucolipin-3 (Q8TDD5 whole entry): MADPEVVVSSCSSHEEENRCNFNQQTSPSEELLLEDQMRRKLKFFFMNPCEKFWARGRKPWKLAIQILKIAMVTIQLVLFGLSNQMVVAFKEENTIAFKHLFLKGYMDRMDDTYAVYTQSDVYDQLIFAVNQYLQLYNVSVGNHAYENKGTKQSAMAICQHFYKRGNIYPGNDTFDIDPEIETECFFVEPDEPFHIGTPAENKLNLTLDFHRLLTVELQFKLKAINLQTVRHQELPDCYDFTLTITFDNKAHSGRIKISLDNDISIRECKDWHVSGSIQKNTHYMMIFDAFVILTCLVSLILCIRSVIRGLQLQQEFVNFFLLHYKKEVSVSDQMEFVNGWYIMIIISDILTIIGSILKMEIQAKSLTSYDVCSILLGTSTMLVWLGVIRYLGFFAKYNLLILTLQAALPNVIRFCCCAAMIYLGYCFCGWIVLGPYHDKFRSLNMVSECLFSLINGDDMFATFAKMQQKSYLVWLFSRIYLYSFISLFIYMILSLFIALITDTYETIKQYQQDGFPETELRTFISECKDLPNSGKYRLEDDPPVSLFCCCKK
Chain of DNA damage-inducible transcript 3 protein (P35639 whole entry): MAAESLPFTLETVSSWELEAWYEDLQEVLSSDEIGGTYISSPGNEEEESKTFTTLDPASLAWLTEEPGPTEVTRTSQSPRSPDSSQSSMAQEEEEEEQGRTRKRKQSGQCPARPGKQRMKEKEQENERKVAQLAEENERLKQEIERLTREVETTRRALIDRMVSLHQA
Chain of Neurotensin receptor type 1 (P30989 whole entry): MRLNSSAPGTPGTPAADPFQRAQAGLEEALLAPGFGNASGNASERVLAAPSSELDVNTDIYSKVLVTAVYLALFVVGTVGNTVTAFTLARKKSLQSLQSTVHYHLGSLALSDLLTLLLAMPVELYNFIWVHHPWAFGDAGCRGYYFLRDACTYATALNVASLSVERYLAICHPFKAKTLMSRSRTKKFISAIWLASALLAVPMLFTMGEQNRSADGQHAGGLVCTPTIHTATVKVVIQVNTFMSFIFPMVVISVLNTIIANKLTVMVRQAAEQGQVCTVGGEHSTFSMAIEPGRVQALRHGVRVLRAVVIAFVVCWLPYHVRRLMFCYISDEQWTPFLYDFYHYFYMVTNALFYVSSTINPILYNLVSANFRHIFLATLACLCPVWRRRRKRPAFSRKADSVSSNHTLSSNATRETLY

Cc1ccc2c(C)c3ccc4ccccc4c3c[n+]2c1.[O-][Cl+3]([O-])([O-])[O-]
CC50 [1]: 78.8 µM (active) | AC50 [2]: 1.06 µM (active) | AC50 [3]: 1.34 µM (active) | EC50 (Hexokinase HKDC1): 14.2 µM (active) | IC50 [4]: 48 µM (active)

N#Cc1c(NCCN)nc(NCc2ccccc2)c2c1CCN(Cc1ccccc1)C2
IC50 [5]: 4.57 µM (active) | IC50 [6]: 47.8 µM (active) | EC50 [7]: > 20 µM (not active) | EC50 [8]: > 20 µM (not active) | IC50 (Estrogen receptor): 11.8 µM (active)

COc1cc(/C=C2\SC(=S)N(c3cccnc3)C2=O)ccc1O
IC50 [9]: > 50 µM (inactive) | IC50 [10]: 4.4 µM (active) | EC50 (Mucolipin-3): > 29.9 µM (not active) | EC50 (Ion channel NompC): > 29.9 µM (inactive)

Cc1cc(Br)c2c(c1)/C(=C/C(=O)c1cccs1)C(=O)N2
CC50 [11]: 18.4 µM (active) | AC50 [12]: 19.9 µM (active) | EC50 [13]: 1.95 µM (active) | Absolute IC50 (CHOP) [14]: 10 µM | EC50 [15]: 17.4 µM (active) | AC50 [16]: 48.5 µM (active) | AC50 [17]: 2.46 µM (active) | EC50 (Protein RecA): 3.27 µM (active) | EC50 [18]: > 60 µM (not active) | AC50 [19]: 20.7 µM (active)
